Measurements: patent US20250302714A1, “ORAL HEALTH AGENT AND COMPOSITION FOR USE IN DOMESTIC ANIMALS” (priority 2022, published 2025)

Tested on: canine oral microbiome
Test: Controlled clinical study in beagles: oral swab sequencing of the canine oral microbiome
Assay type: in vivo, dog (beagles)
Conditions: 14 beagles, arginine powder mixture (1.5% L-arginine) twice daily after meals, 28 days post dental cleaning, oral swabs, global sequencing
Experimental: In vitro and in vivo studies were required to assert the activity of arginine in oral care of domestic animals. […] Controlled clinical studies were performed in 14 beagles fed an arginine powder mixture (Table 2) twice daily after meals. Dental assessments were performed using photographic inspection after the application of a biofilm disclosing agent. Animals were fed the mixture for 28 days prior to final assessment. Oral swab samples were collected at days 0, 7, 14 and 28 and subjected to global sequencing studies.
In this study bacterial populations were clustered and plotted in separate figures. Data was obtained after 28 days of treatment post dental cleaning.

## N=C(N)NCCC[C@H](N)C(=O)O [arginine, L-arginine]
  relative abundance of oral bacterial populations, treated vs control animals: shift towards healthy oral bacterial populations
